Assays:
[1] = molecular target: T1, D-Ala-D-Ala ligase (Escherichia coli, UniProt P07862); assay: Stopped flow fluorescence quenching studies of nucleotide binding to ligase; conditions: for Kd: partially closed complex, product of Kd1 and Kd2, read-out: final (overall) Kd
Method: We have discovered a significant fluorescence quenching upon binding of ATP and ADP, which we have exploited to examine mechanistic features of ligase. We have carried out stopped flow studies to look at the binding of ATP and ADP to ligase. These studies were carried out at 4° C. We observe a single exponential fluorescent quenching which is completed in <20 ms. […] This confirms our previous hypothesis about ligase, namely that the enzyme undergoes conformational changes that are an important and integral part of its enzymatic mechanism. This enzyme appears to fall into the category of “induced fit”.
The enzyme undergoes a conformational change to form the partially closed complex EA*. […] For ADP the conformational change increases the affinity of the nucleotide seven-fold for the partially closed complex, with respect to the initial collision complex, leading to an overall Kd of 50 μM. […] To dissociate the ligand, the enzyme has to relax back to the open form. […] In some cases, it can be advantageous for the inhibitor to trigger a further conformational change, perhaps the closure of the omega loop of domain D, leading to a fully closed form of the enzyme.
Stopped flow studies have added to the understanding of the mechanism by which ligase binds ligands, and have confirmed previous suspicions about “induced fit” mechanism. Determining the affinity of high affinity inhibitors (low nM) will be difficult by equilibrium binding methods or steady state enzyme kinetics. Stopped flow studies may well be the only way that the affinity of high affinity inhibitors can be determined with any degree of confidence. The studies can be carried out, for example, using the methods described by Eccleston, J. F. “Stopped-flow Spectrophotometric Techniques” in Spectrophotometry and Spectrofluorimetry a Practical Approach, Ed. D. A. Harris & C. L. Bashford, IRL Press, 1987, p. 137-164.

[2] = molecular target: D-Ala-D-Ala ligase omega loop (D domain) (Escherichia coli, UniProt P07862); assay: Proteolysis (trypsin) assay of omega loop closure; assay type: biochemical
Description: (§1) We have developed an in vitro assay to look at the closure of the omega loop (i.e., the D domain). The closure of the omega loop is probed by proteolysis.

[3] = molecular target: T1, D-Ala-D-Ala ligase; assay: D-Ala-D-Ala ligase IC50 determination (PK/LDH coupled assay); assay type: biochemical; conditions: control in 1× core buffer; read-out: value (IC50 or Ki) for D-Ala-D-Ala ligase inhibition
Description: Inhibition of D-Ala-D-Ala ligase can be assayed for using the pyruvate kinase/lactate dehydrogenase (PK/LDH) assay described in Example 2. In the bacterial cell wall synthesis process, the ligase catalyzes the conversion of ATP to ADP concurrent with the ligation of two D-alanine residues. PK then regenerates ATP from the ADP thus created simultaneously with the conversion of phosphopyruvate to pyruvate. LDH catalyzes the reduction of pyruvate to lactate by converting NADH to NAD^+. By monitoring the production rate of NAD^+, D-Ala-D-Ala ligase activity can be ascertained.
The purine derivatives of Example 1 were dissolved in dimethylsulfoxide (DMSO) at a concentration of 100 mM on the day of screening, using a vortex mixer if necessary for dissolution. The solutions were kept at room temperature until screening was completed.
A 10 mM NADH (Sigma) stock solution was prepared fresh on the day of screening by dissolving 32 μmol NADH in 3.2 ml double-distilled water. The NADH solution was kept on ice. […]
At t=18-19 minutes, the substrate solution was taken from 25° C. to a Spectromax® UV-vis spectrophotometer. At t=20 minutes, within a 30 second timeframe, 125 μl of substrate solution was added to each well of columns 1-4, and the absorbance at 340 nm was read. […]

[4] = molecular target: T1, D-Ala-D-Ala ligase; assay: Affinity for D-Ala-D-Ala ligase relative to ATP (method not given); assay type: binding; conditions: given in brackets after ATP
Description: as §1

[5] = together with a D-Ala site binding molecule (phosphinate, D-Ala-D-Ala or cycloserine)

Structure (SMILES)	increase in affinity by the conformational change (partially closed vs initial collision complex) ([1]; stopped flow, 4° C.)	Kd ([1]; stopped flow, 4° C.) [µM]	omega loop closure (protection from trypsin proteolysis) [2, 5]	further results
Nc1ncnc2c1ncn2[C@@H]1O[C@H](COP(=O)(O)OP(=O)(O)O)[C@@H](O)[C@H]1O [ADP]	seven	50	stabilize the omega loop closure	affinity for D-Ala-D-Ala ligase relative to ATP ([1]; ADP vs ATP): three; net dissociation rate constant (k−2) ([1]; stopped flow, 4° C.): 72 s⁻¹
N[C@@H]1CON=C1O [Cycloserine, D-cycloserine]				IC50 [3]: ~150 µM
Nc1ncnc2c1ncn2[C@@H]1O[C@H](COP(=O)(O)OP(=O)(O)NP(=O)(O)O)[C@@H](O)[C@H]1O [AMPPNP]			does not support the omega loop closure	
Nc1ncnc2c1ncn2[C@@H]1O[C@H](COP(=O)(O)OP(=O)(O)OP(=O)(O)O)[C@@H](O)[C@H]1O [ATP, adenosine triphosphate]	3.2 fold	157	stabilize the omega loop closure	koff ([1]; stopped flow, 4° C., read-out: net dissociation rate constant (k−2)): 126 s⁻¹; Kd [4]: 300 µM; omega loop closure (protection from trypsin proteolysis) ([2]; nucleotide alone, no D-Ala site binding molecule): cannot close the omega loop
Nc1ncnc2c1ncn2[C@@H]1O[C@H](COP(=O)(O)OP(=O)(O)OP(O)(O)=S)[C@@H](O)[C@H]1O [ATPgS]			stabilize the omega loop closure	

Source: patent publication US20030119061A1, “Structure-based drug design methods for identifying D-Ala-D-Ala ligase inhibitors as antibacterial drugs” (priority 2001, published 2003)
